Laboratory results taken from the supplement of paper PMC10307832.

What was measured:
Experiment in all cases: relative viability (nuclei count vs DMSO), 5 days (fraction); higher = more cells survive
Details in all cases: main component drawn
[1] = compound: CC1=C(N=C(N=C1N)[C@H](CC(=O)N)NC[C@@H](C(=O)N)N)C(=O)N[C@@H]([C@H](C2=CN=CN2)OC3C(C(C(C(O3)CO)O)O)OC4C(C(C(C(O4)CO)O)OC(=O)N)O)C(=O)N[C@H](C)[C@H]([C@H](C)C(=O)N[C@@H]([C@@H](C)O)C(=O)NCCC5=NC(=CS5)C6=NC(=CS6)C(=O)NCCC[S+](C)C)O [Bleomycin] + CC(C)C[C@H](NC(=O)[C@H](Cc1ccccc1)NC(=O)c1cnccn1)B(O)O [Bortezomib] (partner 0.002 µM)
Summary of the method: (§1)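 Relative viability was taken as the ratio of nuclei in treated wells to nuclei in vehicle wells. Lung cancer cell lines in 1536-well plates received compounds by pin tool one day after seeding, either one drug alone or a fixed anchor-drug dose plus five library-drug doses (not always all listed) in √10 steps. Nuclei were counted on 4× images after 5 days of treatment, and values are medians of duplicate plates.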

[2] = compound: CC1=C(N=C(N=C1N)[C@H](CC(=O)N)NC[C@@H](C(=O)N)N)C(=O)N[C@@H]([C@H](C2=CN=CN2)OC3C(C(C(C(O3)CO)O)O)OC4C(C(C(C(O4)CO)O)OC(=O)N)O)C(=O)N[C@H](C)[C@H]([C@H](C)C(=O)N[C@@H]([C@@H](C)O)C(=O)NCCC5=NC(=CS5)C6=NC(=CS6)C(=O)NCCC[S+](C)C)O [Bleomycin] + CS(=O)(=O)CCNCc1ccc(-c2ccc3ncnc(Nc4ccc(OCc5cccc(F)c5)c(Cl)c4)c3c2)o1 [Lapatinib] (partner 2 µM)
Summary of the method: as §1

[3] = compound: CC1=C(N=C(N=C1N)[C@H](CC(=O)N)NC[C@@H](C(=O)N)N)C(=O)N[C@@H]([C@H](C2=CN=CN2)OC3C(C(C(C(O3)CO)O)O)OC4C(C(C(C(O4)CO)O)OC(=O)N)O)C(=O)N[C@H](C)[C@H]([C@H](C)C(=O)N[C@@H]([C@@H](C)O)C(=O)NCCC5=NC(=CS5)C6=NC(=CS6)C(=O)NCCC[S+](C)C)O [Bleomycin] + Cc1cc(Nc2cc(N3CCN(C)CC3)nc(Sc3ccc(NC(=O)C4CC4)cc3)n2)n[nH]1 [Tozasertib] (partner 0.1 µM)
Summary of the method: as §1

[4] = compound: CC1=C(N=C(N=C1N)[C@H](CC(=O)N)NC[C@@H](C(=O)N)N)C(=O)N[C@@H]([C@H](C2=CN=CN2)OC3C(C(C(C(O3)CO)O)O)OC4C(C(C(C(O4)CO)O)OC(=O)N)O)C(=O)N[C@H](C)[C@H]([C@H](C)C(=O)N[C@@H]([C@@H](C)O)C(=O)NCCC5=NC(=CS5)C6=NC(=CS6)C(=O)NCCC[S+](C)C)O [Bleomycin] + O=C(c1cc(Cc2n[nH]c(=O)c3ccccc23)ccc1F)N1CCN(C(=O)C2CC2)CC1 [Olaparib] (partner 8 µM)
Summary of the method: as §1

Cell Line	relative viability ([1]; first compound 0.01 µM)	relative viability ([1]; first compound 0.03162 µM)	relative viability ([1]; first compound 0.1 µM)	relative viability ([1]; first compound 0.3162 µM)	relative viability ([1]; first compound 1 µM)	relative viability ([2]; first compound 0.01 µM)	relative viability ([2]; first compound 0.03162 µM)	relative viability ([2]; first compound 0.1 µM)	relative viability ([2]; first compound 0.3162 µM)	relative viability ([2]; first compound 1 µM)	relative viability ([3]; first compound 0.01 µM)	relative viability ([3]; first compound 0.03162 µM)	relative viability ([3]; first compound 0.1 µM)	relative viability ([3]; first compound 0.3162 µM)	relative viability ([3]; first compound 1 µM)	relative viability ([4]; first compound 0.01 µM)	relative viability ([4]; first compound 0.03162 µM)	relative viability ([4]; first compound 0.1 µM)	relative viability ([4]; first compound 0.3162 µM)	relative viability ([4]; first compound 1 µM)
NCI-H2009	0.852	0.98	1.01	0.358	0.441	0.808	0.892	0.92	0.379	0.365	0.717	0.789	0.701	0.424	0.351	0.586	0.709	0.62	0.453	0.268
NCI-H3122	0.999	0.976	0.957	0.698	0.428	0.931	0.996	0.842	0.654	0.528	0.337	0.281	0.324	0.177	0.166	0.593	0.599	0.506	0.364	0.279
NCI-H1755	0.854	0.957	0.827	0.384	0.659	0.91	1.03	0.92	0.631	0.578	0.54	0.54	0.636	0.468	0.333	0.782	0.79	0.833	0.639	0.599
HCC-78	0.426	0.372	0.458	0.29	0.31	0.64	0.918	0.549	0.429	0.215	0.335	0.356	0.357	0.269	0.355	0.592	0.617	0.652	0.488	0.487
LOU-NH91	0.493	0.439	0.355	0.335	0.348	0.679	0.609	0.51	0.361	0.298	0.504	0.289	0.404	0.323	0.274	0.604	0.521	0.432	0.342	0.28
NCI-H322M	1.07	1.13	1.36	0.708	0.592	0.467	0.551	0.543	0.383	0.348	0.424	0.496	0.473	0.396	0.38	0.612	0.823	0.675	0.545	0.447
HCC-827	0.948	0.918	0.9	0.464	0.357	0.197	0.204	0.187	0.173	0.15	0.419	0.453	0.332	0.311	0.205	0.522	–	0.446	0.209	0.161
SW 1573	0.7	0.812	0.719	0.305	0.26	1.05	0.871	0.84	0.446	0.4	0.141	0.184	0.17	0.129	0.161	0.291	0.336	0.292	0.153	0.123
NCI-H1975	0.27	0.342	0.27	0.16	0.142	0.657	0.551	0.542	0.25	0.213	0.485	0.466	0.42	0.152	0.0955	0.565	0.387	0.394	0.169	0.181
NCI-H1651	0.91	0.898	0.664	0.457	0.306	0.75	0.653	0.595	0.229	0.149	0.529	0.455	0.303	0.156	0.105	0.177	0.153	0.172	0.116	0.122
NCI-H460	0.331	0.286	0.103	0.0317	0.0212	0.296	0.29	0.0624	0.0161	0.0213	0.0837	0.101	0.153	0.0462	0.0258	0.212	0.159	0.12	0.0368	0.073
LCLC-97TM1	0.173	0.17	0.0959	0.077	0.0823	0.264	0.288	0.151	0.168	0.093	0.176	0.217	0.218	0.158	0.195	0.211	0.258	0.148	0.0871	0.0615
NCI-H838	0.67	0.204	0.23	0.0877	0.152	0.478	0.229	0.184	0.159	0.152	0.238	0.211	0.178	0.15	0.139	0.432	0.269	0.199	0.138	0.148
NCI-H1355	1.13	1.24	1.03	0.376	0.262	0.901	1.15	0.837	0.337	0.257	0.511	0.596	0.478	0.255	0.224	0.669	0.71	0.676	0.341	0.228
HOP-62	0.359	0.189	0.0755	0.113	0.072	0.485	0.395	0.15	0.14	0.141	0.229	0.208	0.194	0.144	0.102	0.175	0.137	0.0997	0.0722	0.0872
NCI-H2085	0.768	0.875	0.707	0.377	0.366	0.689	0.689	0.6	0.437	0.449	0.758	0.74	0.783	0.539	0.428	0.665	0.716	0.47	0.376	0.383
